Several values for one entry are separate records, joined by “and”; a condition that tells them apart may be missing. Equal values may be shown once.
Legend:
Experiment in all cases: Checkerboard assay (FIC index)
[1] = test system: CA-MRSA; assay type: cell-based, Staphylococcus aureus; settings: antibiotic combined with PEP35 (added together)
Experimental: (§1) Checkerboard assays were carried out as described by Bonapace et al.
(§2) Diagnostic Microbiology and Infectious Diseases 2002; 44:363-366. In brief, checkerboard assays were performed in 96 well microtitre trays using an 8-by-8 well configuration. […] 96-well custom designed microtitre plates contained 100 ul/well of cation adjusted Mueller-Hinton broth (eg. for Enterobacteriaceae) with or without lysed horse blood (2-5% V/V) [eg. for S. pneumoniae] and were inoculated to achieve a final concentration of approximately 5×10^5 CFU/ml and incubated in ambient air for 24 hours prior to reading. Colony counts were performed periodically to confirm inocula. Quality control was performed every two weeks using a variety of ATCC QC organisms including; S. pneumoniae 49619, S. aureus 29213, E. faecalis 29212, E. coli 25922 and P. aeruginosa 27853. […] All peptides were assessed for synergy with β-lactams and vancomycin. For all antimicrobials as well as the peptides, CLSI criteria were used.
(§3) The fractional inhibitory concentration index (FIC index) was used to interpret synergy, antagonism or additivity/indifference. FIC index=FIC of drug A+FIC of drug B where:
(§4) The FIC of drug A and drug B was calculated as follows, FIC drug A=MIC of drug A in combination/MIC of drug A alone and FIC of drug B=MIC of drug B in combination/MIC of drug B alone. Synergy was defined as FIC index ≦0.5, additivity/indifference defined as a FIC between 0.5 and 4 and antagonism defined as an FIC index >4.
(§5) The fractional inhibitory concentration index (FIC index) was used to interpret synergy, antagonism or additivity/indifference. FIC index=FIC of drug A+FIC of drug B where the FIC of drug A and drug B was calculated as follows, FIC drug A=MIC of drug A in combination/MIC of drug A alone and FIC of drug B=MIC of drug B in combination/MIC of drug B alone. Synergy was defined as FIC index ≦0.5, additivity/indifference defined as an FIC of between 0.5 and 4 and antagonism defined as an FIC index >4.
(§6) The checkerboard assays were carried out as described by Eliopoulos and Moellering (Chapter 9) in Antibiotic in Laboratory Medicine, Lorian Ed. 1996 as well as Bonapace et al. Diagnostic Microbiology and Infectious Diseases 2002; 44:363-366 and Bonapace et al. Diagnostic Microbiology and Infectious Diseases 2000; 38:43-50. In brief, checkerboard assays were performed in 96 well microtitre trays using an 8-by-8 well configuration. […] 96-well custom designed microtitre plates contained 100 ul/well of cation adjusted Mueller-Hinton broth (eg. for Enterobacteriaceae) with or without lysed horse blood (2-5% V/V) [eg. for S. pneumoniae] and were inoculated to achieve a final concentration of approximately 5×10^5 CFU/ml and incubated in ambient air for 24 hours prior to reading. Colony counts were performed periodically to confirm inocula. Quality control was performed every two weeks using a variety of ATCC QC organisms including; S. pneumoniae 49619, S. aureus 29213, E. faecalis 29212, E. coli 25922 and P. aeruginosa 27853.
(§7) The FIC of drug A and drug B is calculated as follows, FIC drug A=MIC of drug A in combination/MIC of drug A alone and FIC of drug B=MIC of drug B in combination/MIC of drug B alone. Synergy is defined as FIC index ≦0.5, additivity/indifference FIC >0.5-4 and antagonism FIC index >4.
(§8) These agents were obtained as laboratory grade powders from their respective manufacturers. Stock solutions were prepared and dilutions made as described by the Clinical Laboratory Standards Institute (2005 CLSI).

[2] = test system: HA-MRSA; assay type: cell-based, Staphylococcus aureus; settings: antibiotic combined with PEP35 (added together)
Experimental: as §1, §2, §3, §4, §5, §6, §7, §8

[3] = test system: VRSA; assay type: cell-based, Staphylococcus aureus; settings: antibiotic combined with PEP35 (added together)
Experimental: as §1, §2, §3, §4, §5, §6, §7, §8

[4] = test system: S. pneumoniae; assay type: cell-based, Streptococcus pneumoniae; settings: antibiotic combined with PEP35;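 further: each agent diluted from 0.03 to 4 times its MIC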
Experimental: as §6, with “27853. For all antimicrobials as well as PEP35, CLSI criteria was used.” for “27853.”
as §3, §7
(§9) Antimicrobials used included PEP35, cefazolin, ceftriaxone, vancomycin, linezolid, tigecycline and daptomycin versus Gram-positive cocci and PEP35, gentamicin, levofloxacin, piperacillin/tazobactam, meropenem and colistin (Polymyxin E) versus Gram-negative bacilli. These agents were obtained as laboratory grade powders from their respective manufacturers. Stock solutions were prepared and dilutions made as described by the Clinical Laboratory Standards Institute (2005 CLSI).
(§10) Organisms included Gram-positive cocci (2 strains of each): Methicillin-susceptible Staphylococcus aureus (MSSA), community-associated (CA) and healthcare-associated (HA) methicillin-resistant Staphylococcus aureus (MRSA), vancomycin-intermediate Staphylococcus aureus (VISA), vancomycin-resistant Staphylococcus aureus (VRSA), methicillin-resistant Staphylococcus epidermidis (MRSE), Streptococcus pyogenes, Streptococcus agalactiae, Streptococcus pneumoniae, Enterococcus faecalis, Enterococcus faecium and vancomycin-resistant enterococcus (VRE). Gram-negative bacilli tested (2 strains of each) included: E. coli, Pseudomonas aeruginosa, Klebsiella pneumoniae, K. oxytoca, Enterobacter cloacae, P. mirabilis and Stenotrophomonas maltophilia. MIC testing, following two subcultures from frozen stock were determined by the CLSI 2005 approved broth microdilution method.

[5] = test system: S. pyogenes; assay type: cell-based, Streptococcus pyogenes; settings: antibiotic combined with PEP35
Experimental: as §6, with “27853. For all antimicrobials as well as PEP35, CLSI criteria was used.” for “27853.”
as §3, §7, §9, §10

[6] = S. pneumoniae-Pen I 72302 (MHB)
[7] = S. pneumoniae-Pen I 78663 (MHB)
[8] = S. pneumoniae-Pen R 76065 (MHB)
[9] = S. pneumoniae-Pen R 78519 (MHB)
[10] = S. pneumoniae-Pen S 70400 (MHB)
[11] = S. pneumoniae-Pen S 71263 (MHB)

Structure (SMILES) | Avg ΣFIC (range) ([1]; CA-MRSA 69615 (USA400)) | Avg ΣFIC (range) ([1]; CA-MRSA 70857 (USA400)) | Avg ΣFIC (range) ([2]; HA-MRSA 70798 (USA100/800)) | Avg ΣFIC (range) ([2]; HA-MRSA 77090 (USA100/800)) | Avg ΣFIC (range) ([3]; VRSA 105) | Avg ΣFIC (range) ([3]; VRSA 106) | Avg ΣFIC (range) [4, 6] | Avg ΣFIC (range) [4, 7] | Avg ΣFIC (range) [4, 8] | Avg ΣFIC (range) [4, 9] | Avg ΣFIC (range) [4, 10] | Avg ΣFIC (range) [4, 11] | Avg ΣFIC (range) ([5]; S. pyogenes 77765 (MHB)) | Avg ΣFIC (range) ([5]; S. pyogenes 79531 (MHB))
CN(C)c1cc(NC(=O)CNC(C)(C)C)c(O)c2c1C[C@H]1C[C@H]3[C@H](N(C)C)C(O)=C(C(N)=O)C(=O)[C@@]3(O)C(O)=C1C2=O [Tigecycline, tigecycline] | 0.93 (0.62-1.12) | 0.74 (0.5-1.06) | 0.77 (0.5-1.06) | 0.83 (0.5-1.12) | 0.93 (0.62-1.12) | 1.2 (0.56-2.12) | 0.68 (0.53-1.03) | 1.0 (0.56-1.12) | 0.91 (0.62-1.12) | 0.98 (0.75-1.12) | 0.91 (0.62-1.12) | 0.92 (0.56-1.25) | 1.1 (1.0-1.25) | 1.1 (1.0-1.25)
CN[C@H](CC(C)C)C(=O)N[C@H]1C(=O)N[C@@H](CC(N)=O)C(=O)N[C@H]2C(=O)N[C@H]3C(=O)N[C@H](C(=O)N[C@H](C(=O)O)c4cc(O)cc(O)c4-c4cc3ccc4O)[C@H](O)c3ccc(c(Cl)c3)Oc3cc2cc(c3O[C@@H]2O[C@H](CO)[C@@H](O)[C@H](O)[C@H]2O[C@H]2C[C@](C)(N)[C@H](O)[C@H](C)O2)Oc2ccc(cc2Cl)[C@H]1O [Vancomycin] | 1.19 (1.03-1.5) | 1.05 (0.75-1.25) | 1.19 (1.03-1.5) | 0.95 (0.56-1.25) | 0.3 (0.15-0.53) and 0.49 (0.24-1.06) | 0.27 (0.09-0.53) and 0.40 (0.15-1.06) | 1.26 (1.06-1.5) | 1.1 (1.0-1.25) | 0.86 (0.53-1.25) | 1.2 (1.015-1.5) | 0.91 (0.56-1.25) | 1.05 (0.75-1.25) | 1.09 (1.0-1.25) | 1.27 (1.015-2.5)

— patent publication US9751919B2, “Antimicrobial compositions comprising a hyaluronic acid binding peptide and a β-lactam antibiotic” (priority 2012, dated 2017)
